≈ marks a conversion by molar mass, not a printed value. Like-named read-outs stand apart in the source and are kept apart here.
Columns and labels:
[1] = system: Methicillin-resistant Staphylococcus aureus (MRSA); assay: In-vitro antibacterial activity, MIC by broth dilution; assay type: cell-based
Method: (§1) The minimum inhibitory concentration (MIC) values for VCM loaded liposomes were determined against Staphylococcus aureus (SA) and Methicillin-resistant Staphylococcus aureus (MRSA) using broth dilution method (Materials Science and Engineering: C, Volume 61, 2016, Pages 616-630). The stock bacterial cultures were grown in Mueller-Hinton Broth (MHB) 24 h before the test at 37° C.
(§2) Bacterial suspensions were prepared equal to 1.5×10^8 CFU ml^−1 as half mcFarland. Serial dilutions of VCM loaded liposomal formulations were prepared in MHB broth then added to the bacterial culture, mixed properly and incubated at 37° C. for 24 hours. […] The study continued for four days to determine the sustained release activity of encapsulated VCM. Experiments were performed in triplicate and drug-free liposomes, bare VCM solution and VCM loaded liposomes without Ph-responsive lipid were used as controls.

[2] = system: Staphylococcus aureus (SA); assay: as above; assay type: cell-based; conditions: S. aureus
Method: as §1, §2

[3] = In-vitro VCM release from liposomes as a function of pH; assay type: physicochemical
Method: In-vitro drug release of VCM from the pH-responsive liposomes of the invention is illustrated in FIG. 6. At all-time intervals, VCM release at acidic pH (6.5) was higher than at physiological pH of 7.4. […] For further confirmation, the mean dissolution time (MDT 90%) for 90% of drug release was calculated from in-vitro release data. […] The MDT value is inversely proportional to the release rate, i.e. lower the MDT higher the release rate and vice versa. […] The higher drug release rate at the acidic environment from liposomes can be attributed to the alteration in the lipid bilayer orientation and permeability caused by conformational changes at the head group and hydrophobic tails of the PH-responsive lipid at low pH.

[4] = system: shaved rat skin; assay type: in vitro ADME, Wistar rats
Description: All the experiments performed using animals were approved by Animal Research Ethics committee of the University of KwaZulu-Natal. In vivo study, the protocol was approved by Animal Research Ethics committee of the University of KwaZulu-Natal. The protocol approval numbers for in vivo skin infection model and transdermal permeation studies were AREC/104/015PD and AREC/054/14/Animal respectively. BALB/c mice and Wistar rats were used for in vivo skin infection model and transdermal permeation study respectively. Animals used in the study were procured from Biomedical Resource Unit of University of KwaZulu-Natal, Westville, Durban, South Africa.
All the intermediate, ester derivatives (MSAPE, MOAPE, MLAPE, MLLAPE, DSAPE, DOAPE, DLAPE, DLLAPE, TSAPE, TOAPE, TLAPE and TLLAPE) were evaluated as potential CPEs for transdermal drug delivery using tenofovir (TNF) as a model drug. The experiments were performed on shaved rat skin using Franz diffusion cells. TNF gels were prepared using hydroxypropyl methyl cellulose, milli-Q water and 1% w/w of compounds of formula 1. The permeability of TNF in the absence of enhancers was performed as a control. […] TNF was able to permeate the skin without any permeation enhancer with a steady state flux value 040.91±04.93 μg cm^−2 h^−1 (Table 6).

[5] = both pH values, study over four days
[6] = pH 6.5, DAY - I (24 h), listed as bare VCM
[7] = pH 7.4, DAY - I (24 h), listed as bare VCM

SMILES	Cumulative amount of TNF permeated ([4]; Wistar, rat, 6 h, 1 % w/w) [μg cm^−2]	ER (enhancement ratio) ([4]; Wistar, rat, 6 h, 1 % w/w)	Permeability (P × 10^−2) of TNF ([4]; Wistar, rat, 6 h, 1 % w/w)	other results
CN[C@H](CC(C)C)C(=O)N[C@H]1C(=O)N[C@@H](CC(N)=O)C(=O)N[C@H]2C(=O)N[C@H]3C(=O)N[C@H](C(=O)N[C@H](C(=O)O)c4cc(O)cc(O)c4-c4cc3ccc4O)[C@H](O)c3ccc(c(Cl)c3)Oc3cc2cc(c3O[C@@H]2O[C@H](CO)[C@@H](O)[C@H](O)[C@H]2O[C@H]2C[C@](C)(N)[C@H](O)[C@H](C)O2)Oc2ccc(cc2Cl)[C@H]1O [Bare VCM, Vancomycin]	–	–	–	time up to which antibacterial activity was exhibited [1, 5]: ≤ 24 h; MIC ([1]; pH 6.5, DAY - I (24 h)): 15.62 µg/mL (≈ 10.8 µM); MIC [1, 6]: 0.98 µg/mL (≈ 0.676 µM); MIC ([1]; pH 7.4, DAY - I (24 h)): 7.81 µg/mL (≈ 5.39 µM); MIC [1, 7]: 0.98 µg/mL (≈ 0.676 µM); time up to which antibacterial activity was exhibited [2, 5]: ≤ 24 h; MIC ([2]; pH 6.5, DAY - I (24 h)): 7.81 µg/mL (≈ 5.39 µM); MIC [2, 6]: 1.95 µg/mL (≈ 1.35 µM); MIC ([2]; pH 7.4, DAY - I (24 h)): 3.91 µg/mL (≈ 2.7 µM); MIC [2, 7]: 8.79 µg/mL (≈ 6.07 µM); MDT90% Mean dissolution time calculated for 90% of VCM release ([3]; pH 5.5): 6.064 h; MDT90% Mean dissolution time calculated for 90% of VCM release ([3]; pH 6.5): 4.173 h; MDT90% Mean dissolution time calculated for 90% of VCM release ([3]; pH 7.4): 2.690 h
CCCCC/C=C\C/C=C\CCCCCCCC(=O)OCC(COC(=O)CCCCCCC/C=C\C/C=C\CCCCC)NCCC(=O)OC(C)(C)C [DLAPE, 2-((3-(tert-butoxy)-3-oxopropyl)amino)propane-1,3-diyl (9Z,9′Z,12Z,12′Z)-bis(octadeca-9,12-dienoate)]	1074.62 ± 61.12	3.95	0.809 ± 0.05	–
CC/C=C\C/C=C\C/C=C\CCCCCCCC(=O)OCC(COC(=O)CCCCCCC/C=C\C/C=C\C/C=C\CC)NCCC(=O)OC(C)(C)C [DLLAPE, 2-((3-(tert-butoxy)-3-oxopropyl)amino)propane-1,3-diyl (9Z,9′Z,12Z,12′Z,15Z,15′Z)-bis(octadeca-9,12,15-trienoate)]	400.37 ± 18.92	1.65	0.337 ± 0.01	–
CCCCCCCC/C=C\CCCCCCCC(=O)OCC(COC(=O)CCCCCCC/C=C\CCCCCCCC)NCCC(=O)OC(C)(C)C [DOAPE, 2-((3-(tert-butoxy)-3-oxopropyl)amino)propane-1,3-diyl dioleate]	424.95 ± 59.84	1.71	0.350 ± 0.05	–
CCCCCCCCCCCCCCCCCC(=O)OCC(COC(=O)CCCCCCCCCCCCCCCCC)NCCC(=O)OC(C)(C)C [DSAPE, 2-((3-(tert-butoxy)-3-oxopropyl)amino)propane-1,3-diyl distearate]	336.1 ± 25.67	1.40	0.286 ± 0.02	–
CCCCC/C=C\C/C=C\CCCCCCCC(=O)OCCNCCC(=O)OC(C)(C)C [MLAPE, 2-((3-(tert-butoxy)-3-oxopropyl)amino)ethyl (9Z,12Z)-octadeca-9,12-dienoate]	574.97 ± 74.09	2.25	0.460 ± 0.06	–
CC/C=C\C/C=C\C/C=C\CCCCCCCC(=O)OCCNCCC(=O)OC(C)(C)C [MLLAPE, 2-((3-(tert-butoxy)-3-oxopropyl)amino)ethyl (9Z,12Z,15Z)-octadeca-9,12,15-trienoate]	945.88 ± 44.93	3.70	0.758 ± 0.04	–
CCCCCCCC/C=C\CCCCCCCC(=O)OCCNCCC(=O)OC(C)(C)C [MOAPE, 2-((3-(tert-butoxy)-3-oxopropyl)amino)ethyl oleate]	1594.06 ± 198.92	5.58	1.142 ± 0.16	–
CCCCCCCCCCCCCCCCCC(=O)OCCNCCC(=O)OC(C)(C)C [MSAPE, 2-((3-(tert-butoxy)-3-oxopropyl)amino)ethyl stearate]	407.12 ± 66.51	1.55	0.317 ± 0.06	–
C[C@H](Cn1cnc2c(N)ncnc21)OCP(=O)(O)O [TNF, tenofovir, reference compound]	–	–	–	Cumulative amount of TNF permeated [4]: 253.10±23.84 μg cm^−2
CCCCCCCC/C=C/CCCCCCCC(=O)OCC(COC(=O)CCCCCCC/C=C/CCCCCCCC)(COC(=O)CCCCCCC/C=C/CCCCCCCC)NCCC(=O)OC(C)(C)C [TOAPE, 2-((3-(tert-butoxy)-3-oxopropyl)amino)-2-((((Z)-octadec-9-enoyl)oxy)methyl)propane-1,3-diyl(9Z,9′Z)-bis(octadec-9-enoate)]	342.3 ± 26.94	1.50	0.306 ± 0.02	–
CCCCCCCCCCCCCCCCCC(=O)OCC(COC(=O)CCCCCCCCCCCCCCCCC)(COC(=O)CCCCCCCCCCCCCCCCC)NCCC(=O)OC(C)(C)C [TSAPE, 2-((3-(tert-butoxy)-3-oxopropyl)amino)-2-((stearoyloxy)methyl) propane-1,3-diyl distearate]	531.70 ± 23.87	2.09	0.428 ± 0.02	–

Source: US20210317071A1, “PH-RESPONSIVE LIPIDS” (University of KwaZulu-Natal, priority 2016, published 2021)
